Molecules are shown by their SMILES.

Assay [1] addresses D(3) dopamine receptor (Homo sapiens, UniProt P35462).
Assay [2] concerns the target T1, Adenosine receptor A3 (Homo sapiens, UniProt P0DMS8).
T1 sequence (P0DMS8 whole entry): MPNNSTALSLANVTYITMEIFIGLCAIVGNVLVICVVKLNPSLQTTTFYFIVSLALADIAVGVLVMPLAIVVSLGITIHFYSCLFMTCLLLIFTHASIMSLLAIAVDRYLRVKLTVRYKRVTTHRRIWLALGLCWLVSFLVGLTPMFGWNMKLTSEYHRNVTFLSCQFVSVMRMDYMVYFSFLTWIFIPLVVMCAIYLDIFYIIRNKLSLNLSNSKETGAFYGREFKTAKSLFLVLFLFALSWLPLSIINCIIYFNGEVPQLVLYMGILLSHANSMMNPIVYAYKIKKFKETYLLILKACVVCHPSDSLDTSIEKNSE

For assay [3], the target named is T2, Progesterone receptor (Homo sapiens, UniProt P06401).
T2 sequence (P06401 whole entry): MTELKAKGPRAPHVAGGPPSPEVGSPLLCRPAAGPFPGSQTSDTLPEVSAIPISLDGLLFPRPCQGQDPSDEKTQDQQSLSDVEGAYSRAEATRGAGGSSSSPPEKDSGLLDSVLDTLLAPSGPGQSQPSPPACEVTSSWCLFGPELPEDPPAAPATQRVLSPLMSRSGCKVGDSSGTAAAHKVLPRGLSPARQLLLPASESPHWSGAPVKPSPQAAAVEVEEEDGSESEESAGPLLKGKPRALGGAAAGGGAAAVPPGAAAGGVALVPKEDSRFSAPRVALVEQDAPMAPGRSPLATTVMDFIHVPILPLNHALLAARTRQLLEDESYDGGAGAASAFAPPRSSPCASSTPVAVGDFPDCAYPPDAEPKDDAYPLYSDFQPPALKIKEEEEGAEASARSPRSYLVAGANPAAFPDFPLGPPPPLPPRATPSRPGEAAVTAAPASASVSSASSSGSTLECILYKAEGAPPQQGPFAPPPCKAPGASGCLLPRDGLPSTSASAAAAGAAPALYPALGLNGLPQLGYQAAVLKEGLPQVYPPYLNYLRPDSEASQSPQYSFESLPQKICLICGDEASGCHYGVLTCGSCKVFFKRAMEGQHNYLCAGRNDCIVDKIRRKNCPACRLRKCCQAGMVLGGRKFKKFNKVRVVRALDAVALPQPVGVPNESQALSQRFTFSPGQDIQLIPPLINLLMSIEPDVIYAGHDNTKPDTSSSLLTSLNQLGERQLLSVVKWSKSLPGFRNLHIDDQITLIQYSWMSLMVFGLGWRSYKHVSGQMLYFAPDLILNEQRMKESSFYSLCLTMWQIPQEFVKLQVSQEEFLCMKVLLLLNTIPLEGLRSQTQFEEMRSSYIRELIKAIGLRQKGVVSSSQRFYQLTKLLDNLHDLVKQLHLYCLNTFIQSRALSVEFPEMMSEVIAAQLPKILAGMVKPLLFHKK

The target in assay [4] is Prothrombin (Homo sapiens, UniProt P00734). It is filed as functional.
The target of assay [5] is Prostaglandin G/H synthase 1 (Homo sapiens, UniProt P23219). In kind it is functional.
The target in assay [6] is 5-hydroxytryptamine receptor 2B (Homo sapiens, UniProt P41595). In kind it is functional, cell-based.
The target in assay [7] is 3',5'-cyclic-AMP phosphodiesterase 4A (Homo sapiens, UniProt P27815). It is filed as functional.
Assay [8] has as its target Voltage-gated inwardly rectifying potassium channel KCNH2 (Homo sapiens, UniProt Q12809). In kind it is functional. The note with it: read-out: AC50.
In assay [9] the target is T3, Muscarinic acetylcholine receptor M2 (Homo sapiens, UniProt P08172).
T3 sequence (P08172 whole entry): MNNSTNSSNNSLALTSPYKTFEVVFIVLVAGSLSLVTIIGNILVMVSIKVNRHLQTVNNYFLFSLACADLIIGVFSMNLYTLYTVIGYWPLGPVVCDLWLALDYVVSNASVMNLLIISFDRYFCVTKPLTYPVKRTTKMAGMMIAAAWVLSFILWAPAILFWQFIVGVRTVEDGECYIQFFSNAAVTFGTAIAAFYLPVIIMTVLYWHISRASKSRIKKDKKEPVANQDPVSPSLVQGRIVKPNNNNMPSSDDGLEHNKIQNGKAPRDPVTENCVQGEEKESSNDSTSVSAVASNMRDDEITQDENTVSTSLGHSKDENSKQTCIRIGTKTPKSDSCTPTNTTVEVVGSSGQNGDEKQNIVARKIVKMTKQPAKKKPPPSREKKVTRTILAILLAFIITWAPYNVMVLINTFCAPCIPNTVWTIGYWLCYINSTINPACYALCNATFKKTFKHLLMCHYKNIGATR

Assay [10] addresses cGMP-inhibited 3',5'-cyclic phosphodiesterase 3A (Homo sapiens, UniProt Q14432). It is filed as functional.
Assay [11] addresses T4, Alpha-2A adrenergic receptor (Homo sapiens, UniProt P08913).
T4 sequence (P08913 whole entry): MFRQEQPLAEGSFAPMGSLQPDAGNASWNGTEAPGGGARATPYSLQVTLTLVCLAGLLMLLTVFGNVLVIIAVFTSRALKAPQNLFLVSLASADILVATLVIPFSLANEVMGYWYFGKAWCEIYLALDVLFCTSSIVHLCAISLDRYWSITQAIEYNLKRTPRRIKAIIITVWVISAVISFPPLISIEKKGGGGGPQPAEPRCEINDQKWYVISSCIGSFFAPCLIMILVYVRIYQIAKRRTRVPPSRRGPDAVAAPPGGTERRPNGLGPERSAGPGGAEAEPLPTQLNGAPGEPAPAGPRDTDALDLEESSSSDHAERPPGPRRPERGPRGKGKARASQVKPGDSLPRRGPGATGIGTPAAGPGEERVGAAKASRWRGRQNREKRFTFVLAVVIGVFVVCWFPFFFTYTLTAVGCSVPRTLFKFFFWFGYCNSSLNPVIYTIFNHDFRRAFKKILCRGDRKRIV

The target in assay [12] is Sodium-dependent serotonin transporter (Homo sapiens, UniProt P31645).
Also: assay procedure not described here.

cGMP-inhibited 3',5'-cyclic phosphodiesterase 3A, sequence (Q14432 whole entry): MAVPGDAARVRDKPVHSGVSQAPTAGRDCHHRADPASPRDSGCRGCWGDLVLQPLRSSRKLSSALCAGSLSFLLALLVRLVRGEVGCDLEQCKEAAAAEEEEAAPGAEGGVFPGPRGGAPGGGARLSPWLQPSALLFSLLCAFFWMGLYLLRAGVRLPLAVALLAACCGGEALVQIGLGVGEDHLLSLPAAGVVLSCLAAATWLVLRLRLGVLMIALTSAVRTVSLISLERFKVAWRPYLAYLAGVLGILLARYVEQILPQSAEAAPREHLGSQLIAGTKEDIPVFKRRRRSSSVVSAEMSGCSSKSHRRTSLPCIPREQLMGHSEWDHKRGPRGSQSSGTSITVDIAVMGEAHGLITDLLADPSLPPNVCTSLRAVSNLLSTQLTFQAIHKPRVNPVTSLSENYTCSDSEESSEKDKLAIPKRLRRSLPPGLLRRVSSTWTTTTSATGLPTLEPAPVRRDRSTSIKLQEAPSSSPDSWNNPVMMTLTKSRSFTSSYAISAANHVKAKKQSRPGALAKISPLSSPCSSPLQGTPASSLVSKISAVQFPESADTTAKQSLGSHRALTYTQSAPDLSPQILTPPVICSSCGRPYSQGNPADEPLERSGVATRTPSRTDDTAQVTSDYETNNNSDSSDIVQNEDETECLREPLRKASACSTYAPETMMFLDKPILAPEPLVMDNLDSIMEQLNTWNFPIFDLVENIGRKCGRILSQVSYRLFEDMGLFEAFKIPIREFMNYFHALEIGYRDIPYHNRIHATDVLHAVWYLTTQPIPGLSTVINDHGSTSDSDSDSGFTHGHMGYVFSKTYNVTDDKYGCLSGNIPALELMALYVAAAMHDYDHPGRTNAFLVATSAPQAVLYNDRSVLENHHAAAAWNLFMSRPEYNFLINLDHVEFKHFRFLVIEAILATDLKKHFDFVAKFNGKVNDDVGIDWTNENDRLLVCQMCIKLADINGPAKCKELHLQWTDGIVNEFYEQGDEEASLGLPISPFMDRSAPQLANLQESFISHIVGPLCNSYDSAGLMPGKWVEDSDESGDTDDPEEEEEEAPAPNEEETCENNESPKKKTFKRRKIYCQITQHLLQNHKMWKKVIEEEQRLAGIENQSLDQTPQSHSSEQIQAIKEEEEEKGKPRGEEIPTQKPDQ
D(3) dopamine receptor, sequence (P35462 whole entry): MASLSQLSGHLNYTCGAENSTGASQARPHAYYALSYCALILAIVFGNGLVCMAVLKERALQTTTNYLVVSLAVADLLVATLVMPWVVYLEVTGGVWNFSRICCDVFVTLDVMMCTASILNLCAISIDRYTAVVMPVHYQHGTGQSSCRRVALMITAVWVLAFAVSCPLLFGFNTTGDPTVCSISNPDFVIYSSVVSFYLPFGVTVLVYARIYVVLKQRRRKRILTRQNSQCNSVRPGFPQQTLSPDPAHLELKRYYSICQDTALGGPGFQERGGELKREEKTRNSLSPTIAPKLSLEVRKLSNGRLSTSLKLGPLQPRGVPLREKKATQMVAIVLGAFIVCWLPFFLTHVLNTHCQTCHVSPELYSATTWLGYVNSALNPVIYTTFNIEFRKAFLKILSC
Prostaglandin G/H synthase 1, sequence (P23219 whole entry): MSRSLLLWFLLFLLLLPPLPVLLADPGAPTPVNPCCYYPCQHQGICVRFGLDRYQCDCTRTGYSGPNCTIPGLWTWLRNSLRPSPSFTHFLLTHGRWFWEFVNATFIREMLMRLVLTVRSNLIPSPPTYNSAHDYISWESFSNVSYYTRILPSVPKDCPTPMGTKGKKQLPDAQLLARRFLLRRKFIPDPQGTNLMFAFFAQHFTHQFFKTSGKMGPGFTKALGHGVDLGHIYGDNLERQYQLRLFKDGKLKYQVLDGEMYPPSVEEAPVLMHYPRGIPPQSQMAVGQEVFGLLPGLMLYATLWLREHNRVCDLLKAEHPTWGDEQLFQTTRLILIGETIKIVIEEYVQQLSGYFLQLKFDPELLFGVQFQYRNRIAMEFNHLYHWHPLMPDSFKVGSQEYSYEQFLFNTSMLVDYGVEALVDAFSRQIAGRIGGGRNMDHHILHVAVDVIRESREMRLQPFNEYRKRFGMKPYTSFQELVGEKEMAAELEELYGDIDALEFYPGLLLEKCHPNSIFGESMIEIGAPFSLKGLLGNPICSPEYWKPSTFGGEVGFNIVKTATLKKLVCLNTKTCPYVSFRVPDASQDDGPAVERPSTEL
5-hydroxytryptamine receptor 2B, sequence (P41595 whole entry): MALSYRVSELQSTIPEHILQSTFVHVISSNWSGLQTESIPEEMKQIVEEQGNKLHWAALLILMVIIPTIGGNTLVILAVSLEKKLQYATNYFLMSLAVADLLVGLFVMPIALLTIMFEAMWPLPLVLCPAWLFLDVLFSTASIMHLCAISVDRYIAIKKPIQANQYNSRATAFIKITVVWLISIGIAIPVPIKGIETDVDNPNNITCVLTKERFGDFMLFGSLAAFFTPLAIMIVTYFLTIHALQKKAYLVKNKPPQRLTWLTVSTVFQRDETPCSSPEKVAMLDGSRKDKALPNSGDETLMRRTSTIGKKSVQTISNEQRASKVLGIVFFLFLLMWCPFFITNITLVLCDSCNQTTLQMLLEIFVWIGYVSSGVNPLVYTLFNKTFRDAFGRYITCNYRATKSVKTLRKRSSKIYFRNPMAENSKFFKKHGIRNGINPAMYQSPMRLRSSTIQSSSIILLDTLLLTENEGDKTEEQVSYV
Voltage-gated inwardly rectifying potassium channel KCNH2, sequence (Q12809 whole entry): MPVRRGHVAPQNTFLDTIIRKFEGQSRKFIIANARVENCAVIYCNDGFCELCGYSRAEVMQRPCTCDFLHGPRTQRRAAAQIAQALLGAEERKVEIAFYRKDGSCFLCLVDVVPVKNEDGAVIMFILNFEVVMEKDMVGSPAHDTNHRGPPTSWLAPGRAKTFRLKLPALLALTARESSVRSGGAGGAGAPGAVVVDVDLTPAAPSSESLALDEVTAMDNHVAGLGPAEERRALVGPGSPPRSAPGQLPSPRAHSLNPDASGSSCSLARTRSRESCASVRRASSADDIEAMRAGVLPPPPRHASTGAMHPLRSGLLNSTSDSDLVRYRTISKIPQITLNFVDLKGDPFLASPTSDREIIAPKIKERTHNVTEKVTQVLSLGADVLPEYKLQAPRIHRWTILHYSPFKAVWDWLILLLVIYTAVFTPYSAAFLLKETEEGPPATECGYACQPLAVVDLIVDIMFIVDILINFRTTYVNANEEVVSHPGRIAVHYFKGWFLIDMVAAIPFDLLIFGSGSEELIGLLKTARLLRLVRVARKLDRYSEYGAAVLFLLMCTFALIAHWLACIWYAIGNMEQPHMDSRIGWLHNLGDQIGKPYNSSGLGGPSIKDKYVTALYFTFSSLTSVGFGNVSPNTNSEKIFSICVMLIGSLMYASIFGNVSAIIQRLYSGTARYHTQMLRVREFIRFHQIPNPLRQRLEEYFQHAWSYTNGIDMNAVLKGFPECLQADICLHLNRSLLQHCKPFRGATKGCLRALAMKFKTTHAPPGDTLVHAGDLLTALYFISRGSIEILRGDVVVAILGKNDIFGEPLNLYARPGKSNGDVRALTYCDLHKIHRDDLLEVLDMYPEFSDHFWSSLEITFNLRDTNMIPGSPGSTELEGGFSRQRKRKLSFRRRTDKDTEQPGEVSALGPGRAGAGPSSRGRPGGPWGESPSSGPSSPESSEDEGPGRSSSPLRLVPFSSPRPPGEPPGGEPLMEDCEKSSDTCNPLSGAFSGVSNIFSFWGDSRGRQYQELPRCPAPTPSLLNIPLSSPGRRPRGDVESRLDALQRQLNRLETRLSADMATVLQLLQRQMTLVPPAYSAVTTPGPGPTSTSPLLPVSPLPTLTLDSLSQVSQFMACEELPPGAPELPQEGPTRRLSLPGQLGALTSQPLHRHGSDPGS
3',5'-cyclic-AMP phosphodiesterase 4A, sequence (P27815 whole entry): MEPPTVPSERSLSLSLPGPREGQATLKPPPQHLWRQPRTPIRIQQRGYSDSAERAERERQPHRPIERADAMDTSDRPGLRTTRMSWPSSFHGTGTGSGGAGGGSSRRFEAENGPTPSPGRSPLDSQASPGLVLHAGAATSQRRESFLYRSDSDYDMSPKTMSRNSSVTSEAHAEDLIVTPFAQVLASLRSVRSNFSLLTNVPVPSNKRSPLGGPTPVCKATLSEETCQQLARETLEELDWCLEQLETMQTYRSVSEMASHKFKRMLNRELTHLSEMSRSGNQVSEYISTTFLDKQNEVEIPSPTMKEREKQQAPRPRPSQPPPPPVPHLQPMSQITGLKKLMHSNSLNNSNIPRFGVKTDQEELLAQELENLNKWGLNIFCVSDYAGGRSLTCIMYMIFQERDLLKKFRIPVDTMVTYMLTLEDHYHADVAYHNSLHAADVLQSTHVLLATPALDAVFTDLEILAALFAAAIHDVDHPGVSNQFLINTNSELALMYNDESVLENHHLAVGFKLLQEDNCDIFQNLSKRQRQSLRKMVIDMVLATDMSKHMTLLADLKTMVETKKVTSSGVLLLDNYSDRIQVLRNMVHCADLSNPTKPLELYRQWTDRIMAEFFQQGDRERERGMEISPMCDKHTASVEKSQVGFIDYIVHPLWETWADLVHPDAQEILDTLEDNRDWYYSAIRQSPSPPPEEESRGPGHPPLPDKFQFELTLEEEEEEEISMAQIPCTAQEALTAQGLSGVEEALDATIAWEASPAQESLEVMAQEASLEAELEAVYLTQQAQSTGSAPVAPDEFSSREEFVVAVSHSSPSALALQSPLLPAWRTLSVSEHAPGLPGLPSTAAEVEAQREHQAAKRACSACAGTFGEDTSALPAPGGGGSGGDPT

For the molecule `Cc1cn(-c2cc(NC(=O)c3ccc(C)c(Nc4nccc(-c5cnccn5)n4)c3)cc(C(F)(F)F)c2)cn1` [RADOTINIB], the AC50 in assay [1] is > 30 µM; in [2] it was 0.298 µM; in assay [3], > 30 µM; in assay [4], > 30 µM; in [5], > 30 µM; in assay [6] it was > 30 µM. Also, the AC50 in [7] was > 30 µM; in assay [8], > 30 µM; in assay [9], > 30 µM; in [10], > 3 µM; in [11], > 30 µM; in [12], > 30 µM.
`Cc1cccc(C)c1NC(=O)CN(CC(=O)O)CC(=O)O` [LIDOFENIN]: the AC50 in [1], in assay [2], in assay [3], in assay [4], in [5] and in assay [6] was > 30 µM each time. Also, the AC50 in assay [7], in [8], in assay [9], in assay [10], in [11] and in [12] was > 30 µM throughout.

The values above are taken from ChEMBL document CHEMBL5291721, “A preclinical secondary pharmacology resource illuminates target-adverse drug reaction associations of marketed drugs” (Nat Commun, 2023).
